One data set has as its system B. cenocepacia FCF19. Nature of the data set: MIC, 2-fold microdilution, resazurin method. The data set is classed as cell-based, Burkholderia cenocepacia. The following applies: clinical isolate FCF19. As to the method:
(§1) Burkholderia cenocepacia strains, Escherichia coli ATCC 25922, Pseudomonas aeruginosa PAO1, and Staphylococcus aureus ATCC 25923 were grown in Luria-Bertani (LB) medium (Difco), if not differently specified, with shaking at 200 rpm, or on LB agar, at 37°C.
(§2) The microtiter plates were incubated at 37°C for 48 (for B. cenocepacia) or 24 h (for all the other strains) and growth was determined by the resazurin method (Martin et al., [2006]). A solution of resazurin sodium salt (Sigma Aldrich) was prepared at 0.01% in distilled water and filter-sterilized. Thirty microliter of resazurin solution were added to each well after 1 or 2 days of incubation at 37°C, and the microtiters were re-incubated at the same temperature for 4 h. The MIC was defined as the lowest concentration of the drug that prevented a change in color from blue to pink, which indicates bacterial growth.
(§3) Three independent biological replicates were used for each MIC determination.
A general note: Dilution methods test growth across graded concentrations, often in twofold steps.

The subject of the next data set is B. cenocepacia FCF22. The data set can be described thus: MIC, 2-fold microdilution, resazurin method. In kind it is cell-based, Burkholderia cenocepacia. The conditions noted are these: clinical isolate FCF22. The method, then:
as §1, §2, §3

For another data set, the system named is B. cenocepacia J2315. Nature of the data set: MIC, 2-fold microdilution, resazurin method. The data set is classed as cell-based, Burkholderia cenocepacia. The following applies: for MIC: Burkholderia cenocepacia; for activity compared with C109, in words: SAR statements, against both bacteria and the purified enzyme. The method, then:
as §1, §2, §3

In a further data set the test system is E. coli ATCC 25922. The data set can be described thus: MIC, 2-fold microdilution, resazurin method. The conditions noted are these: Escherichia coli. In kind it is cell-based. As to the method:
as §1, §2, §3

The test system of the next data set is P. aeruginosa PAO1. Nature of the data set: MIC, 2-fold microdilution, resazurin method. The data set is classed as cell-based. The following applies: Pseudomonas aeruginosa. The method, then: as §1, §2, §3
The test system of the next data set is S. aureus ATCC 25923. Nature of the data set: MIC, 2-fold microdilution, resazurin method. The data set is classed as cell-based, Staphylococcus aureus. The conditions noted are these: for MIC: Staphylococcus aureus. As to the method: as §1, §2, §3
Data set [1] has as its target Burkholderia cenocepacia purified FtsZ protein (Burkholderia cenocepacia, UniProt B4E5Y7). The data set can be described thus: biochemical. In kind it is biochemical. The conditions noted are these: for Inhibition of Bc FtsZ At 100 μM: 100 μM compound; for Inhibition of Bc FtsZ At 100 μM / Inhibits B. cenocepacia FtsZ GTPase at 100µM?: Yes/No; for Inhibits B. cenocepacia FtsZ GTPase at 100µM?: Supplementary Table 1. The method, then:
All the recombinant FtsZ proteins were expressed at 20°C overnight in E. coli BL21(DE3) cells, upon induction with 0.5 mM IPTG, and purified using the same protocol assessed for the wild-type B. cenocepacia FtsZ (Hogan et al., [2018]).
GTPase enzyme activity was determined using a pyruvate kinase/L-lactic dehydrogenase (PK/LDH) spectrophotometric coupled assay (Ingerman and Nunnari, [2005]). The assays were performed at 30°C, in a reaction mixture containing […] Hepes pH 7.5, 5 mM MgCl2, 5 mM KCl, 10 U PK/LDH, 0.25 mM NADH, 0.25 mM PEP, and 5–10 μM FtsZ, and initiated by the addition of 0.5 mM GTP. Alternatively, GTPase activity was determined by measuring the release of phosphate using the malachite green assay (Baykov et al., [1988]).
(1) A[I]=A[0]×(1-[I]/[I]+IC50)
where A[I] is the enzyme activity at inhibitor concentration [I] and A[0] is the enzyme activity without inhibitor.

Where [2] appears, read: ATCC25922, LB, 24 h, read-out: MIC E. coli 25922.
Setting [3] is: PAO1, LB, 24 h, read-out: MIC P. aeruginosa PAO1.
[4] abbreviates: ATCC25923, LB, 24 h, read-out: MIC S. aureus 25923.
[5] abbreviates: J2315, LB, 48 h, read-out: MIC B. cenocepacia J2315.
Setting [6] is: J2315, Supplementary Table 1, read-out: MIC (µg/ml) B. cenocepacia J2315.
Where [7] appears, read: ATCC25922, Supplementary Table 1, read-out: MIC (µg/ml) E. coli 25922.
The mark [8] stands for this setting: PAO1, Supplementary Table 1, read-out: MIC (µg/ml) P. aeruginosa PAO1.
[9] abbreviates: ATCC25923, Supplementary Table 1, read-out: MIC (µg/ml) S. aureus 25923.

Converted amounts (≈) assume the structure as drawn. Read-outs that look alike come from different tables or passages of the source.

Chain of Burkholderia cenocepacia purified FtsZ protein (B4E5Y7 entry or part of it): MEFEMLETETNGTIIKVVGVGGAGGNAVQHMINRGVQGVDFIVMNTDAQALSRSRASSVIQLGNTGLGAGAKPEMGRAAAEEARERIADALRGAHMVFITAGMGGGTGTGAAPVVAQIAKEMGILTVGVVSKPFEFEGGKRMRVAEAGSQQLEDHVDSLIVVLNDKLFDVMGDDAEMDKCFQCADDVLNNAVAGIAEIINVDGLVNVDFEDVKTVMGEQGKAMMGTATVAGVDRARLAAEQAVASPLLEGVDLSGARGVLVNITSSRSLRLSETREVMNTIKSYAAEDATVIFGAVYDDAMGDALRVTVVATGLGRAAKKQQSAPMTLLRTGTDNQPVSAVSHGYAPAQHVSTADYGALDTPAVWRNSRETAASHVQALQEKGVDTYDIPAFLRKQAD

As for `O=[N+]([O-])c1c(N=C=S)ccc2nsnc12` [compound 10026149], the melting point lay in the range of 185 to 187 °C. Moreover, the MIC with B. cenocepacia FCF19 (Burkholderia cenocepacia) was found to be 64 µg/mL (≈ 269 µM). In addition, in the data set on B. cenocepacia FCF19, the “MIC B. cenocepacia FCF19” value was “resistance”. The MIC against B. cenocepacia FCF22 (Burkholderia cenocepacia) worked out at 256 µg/mL (≈ 1070 µM). Also, in the data set on B. cenocepacia FCF22, the “MIC B. cenocepacia FCF22” value is “resistance”. Besides, in the data set with B. cenocepacia J2315 (J2315, 48 h, read-out: MIC (µg/ml) B. cenocepacia J2315), the MIC came out at 32 µg/mL (≈ 134 µM). Besides, the MIC in the data set on B. cenocepacia J2315 (J2315, 48 h, read-out: MIC B. cenocepacia J2315) is 32 µg/mL (≈ 134 µM). Besides, the MIC in the data set on E. coli ATCC 25922 (ATCC25922, 24 h, Supplementary Table 1, read-out: MIC (µg/ml) E. coli 25922) was 16 µg/mL (≈ 67.2 µM). In addition, the MIC in the data set with E. coli ATCC 25922 (setting [2]) is 16 µg/mL (≈ 67.2 µM). Also, the MIC in the data set on P. aeruginosa PAO1 (PAO1, 24 h, Supplementary Table 1, read-out: MIC (µg/ml) P. aeruginosa PAO1) is 16 µg/mL (≈ 67.2 µM). Further, the MIC in the data set with P. aeruginosa PAO1 (setting [3]) was 16 µg/mL (≈ 67.2 µM). Moreover, the MIC in the data set with S. aureus ATCC 25923 (ATCC25923, 24 h, Supplementary Table 1, read-out: MIC (µg/ml) S. aureus 25923) amounted to 2 µg/mL (≈ 8.39 µM). Also, in the data set with S. aureus ATCC 25923 (setting [4]), the MIC was 2 µg/mL (≈ 8.39 µM). Moreover, in data set [1], the “Inhibition of Bc FtsZ At 100 μM” value is “Yes” and the “Inhibits B. cenocepacia FtsZ GTPase at 100µM?” value is given as “Yes”. For the same molecule, in data set [1] (read-out: Inhibition of Bc FtsZ IC50, GTPase activity), the IC50 was 20 µM.
`O=[N+]([O-])c1c(Sc2ncc[nH]2)ccc2nsnc12` [compound 11726256] displayed a melting point of 213 to 215 °C. For the same molecule, the MIC in the data set on B. cenocepacia J2315 (setting [5]) is 128 µg/mL (≈ 458 µM). In the data set on B. cenocepacia J2315 (setting [6]), the MIC was 256 µg/mL (≈ 917 µM). The MIC with E. coli ATCC 25922 (setting [2]) came to 128 µg/mL (≈ 458 µM). Besides, the MIC in the data set with E. coli ATCC 25922 (setting [7]) came to 128 µg/mL (≈ 458 µM). Further, the MIC in the data set on P. aeruginosa PAO1 (setting [3]) was > 256 µg/mL. In addition, in the data set on P. aeruginosa PAO1 (setting [8]), the MIC is > 256 µg/mL. In the data set with S. aureus ATCC 25923 (S. aureus vs Gram-negative species), the “spectrum of activity, in words” value was “showed activity only against S. aureus”. In addition, the MIC in the data set on S. aureus ATCC 25923 (setting [4]) turned out to be 8 µg/mL (≈ 28.6 µM). Also, in the data set on S. aureus ATCC 25923 (setting [9]), the MIC amounted to 8 µg/mL (≈ 28.6 µM). Further, in data set [1], the IC50 is > 100 µM and the “Inhibits B. cenocepacia FtsZ GTPase at 100µM?” value is on record as “Yes”.
`COC(=O)C[S+]([O-])c1ccc2nsnc2c1[N+](=O)[O-]` (stereo not drawn) [compound 11726257] returned a melting point of 179 to 181 °C. The MIC in the data set on B. cenocepacia J2315 (setting [5]) came out at 16 µg/mL (≈ 53.1 µM). The MIC in the data set with B. cenocepacia J2315 (setting [6]) came to 16 µg/mL (≈ 53.1 µM). Moreover, in the data set with B. cenocepacia J2315, the “activity compared with C109, in words” value is given as “activity on B. cenocepacia similar to C109”. Besides, in the data set with E. coli ATCC 25922 (setting [2]), the MIC is 8 µg/mL (≈ 26.6 µM). Further, the MIC in the data set on E. coli ATCC 25922 (setting [7]) was 8 µg/mL (≈ 26.6 µM). Also, the MIC in the data set on P. aeruginosa PAO1 (setting [3]) is 128 µg/mL (≈ 425 µM). In addition, the MIC in the data set on P. aeruginosa PAO1 (setting [8]) was 128 µg/mL (≈ 425 µM). Besides, the MIC with S. aureus ATCC 25923 (setting [4]) was 8 µg/mL (≈ 26.6 µM). The MIC with S. aureus ATCC 25923 (setting [9]) is 8 µg/mL (≈ 26.6 µM). Also, in data set [1], the midpoint of inhibition, the IC50, lay at 3 µM; the “Inhibition of Bc FtsZ At 100 μM” value is given as “Yes”; the “Inhibits B. cenocepacia FtsZ GTPase at 100µM?” value was “Yes”.
`COC(=O)CSc1cc(SCC(=O)OC)c2nsnc2c1[N+](=O)[O-]` [compound 11726258] had a melting point of 141 to 143 °C. In the data set with B. cenocepacia J2315 (setting [5]), the MIC was 256 µg/mL (≈ 657 µM). Further, the MIC with B. cenocepacia J2315 (setting [6]) was found to be 256 µg/mL (≈ 657 µM). For the same molecule, the MIC with E. coli ATCC 25922 (setting [2]) was > 256 µg/mL. Besides, in the data set on E. coli ATCC 25922 (setting [7]), the MIC is > 256 µg/mL. Further, the MIC in the data set with P. aeruginosa PAO1 (setting [3]) was > 256 µg/mL. The MIC in the data set with P. aeruginosa PAO1 (setting [8]) was > 256 µg/mL. Besides, the MIC in the data set on S. aureus ATCC 25923 (setting [4]) was found to be 256 µg/mL (≈ 657 µM). In the data set with S. aureus ATCC 25923 (setting [9]), the MIC was 256 µg/mL (≈ 657 µM). In data set [1], the IC50 came to 15 µM, the “Inhibition of Bc FtsZ At 100 μM” value was “Yes” and the “Inhibits B. cenocepacia FtsZ GTPase at 100µM?” value is on record as “Yes”.
`COC(=O)CS(=O)(=O)c1ccc2nsnc2c1[N+](=O)[O-]` [compound 11826109] yielded a melting point of 123 to 125 °C. In addition, in the data set on B. cenocepacia J2315 (setting [5]), the MIC was determined as 256 µg/mL (≈ 807 µM). In addition, the MIC in the data set with B. cenocepacia J2315 (setting [6]) is 256 µg/mL (≈ 807 µM). Further, the “activity compared with C109, in words” value with B. cenocepacia J2315 is listed as “loss of activity”. In addition, the MIC in the data set with E. coli ATCC 25922 (setting [2]) is 128 µg/mL (≈ 403 µM). For the same molecule, the MIC with E. coli ATCC 25922 (setting [7]) was found to be 128 µg/mL (≈ 403 µM). In the data set with P. aeruginosa PAO1 (setting [3]), the MIC was > 256 µg/mL. Also, in the data set with P. aeruginosa PAO1 (setting [8]), the MIC is > 256 µg/mL. For the same molecule, in the data set on S. aureus ATCC 25923 (setting [4]), the MIC is 16 µg/mL (≈ 50.4 µM). In addition, the MIC in the data set on S. aureus ATCC 25923 (setting [9]) worked out at 16 µg/mL (≈ 50.4 µM). Further, in data set [1], half-maximal inhibition (IC50) was put at 30 µM, the “Inhibition of Bc FtsZ At 100 μM” value is “Yes” and the “Inhibits B. cenocepacia FtsZ GTPase at 100µM?” value is “Yes”.

For orientation: IC50 means the concentration at which inhibition is half-maximal. Broadly, the melting point is the temperature, or range, at which the solid turns liquid.

Values taken from article PMC7154053, “Chemical, Metabolic, and Cellular Characterization of a FtsZ Inhibitor Effective Against Burkholderia cenocepacia” (Frontiers in Microbiology, 2020).
